Measurements published in patent US7591995B2, “Cobalamin conjugates useful as imaging and therapeutic agents” (Mayo Foundation for Medical Education and Research, priority 1999, dated 2009).

Key:
[1] = system: unsaturated B12 binding capacity (UBBC); conditions: relative to cyanocobalamin; J. Nucl. Med. 38, 717-723 (1997), US 5,739,313; cited from earlier work
[2] = system: unsaturated B12 binding capacity (UBBC); conditions: relative to cyanocobalamin
[3] = Specific activity of radiolabeled cobalamin DTPA conjugates; conditions: poly-DTPA complex, increased versus mono-DTPA compounds

Substance	in vitro biological activity (UBBC), comparison to cyanocobalamin [1]	in vitro biological activity (UBBC) when compared to cyanocobalamin [2]	specific activity [3]
cyanocobalamin-DTPA	66.4%	–	–
cyanocobalamin-poly-L-lysine	–	92%	–
cyanocobalamin-poly-L-lysine-polyDTPA	–	43.4%	4.5 mCi
